Measurements as given in patent EP4205737A1, “COMPOSITION FOR PREVENTION, AMELIORATION, OR TREATMENT OF INFLAMMATORY DISEASES OR IMMUNE DISEASES COMPRISING GANCAONIN N AS ACTIVE INGREDIENT” (UNIVERSITY-INDUSTRY COOPERATION GROUP OF KYUNG HEE …, priority 2020, dated 2022).

Assays:
IL-1β [1] = test: Real-time PCR of IL-1β mRNA in LPS-stimulated A549 cells; format: cell-based, human; conditions: LPS 5 ug/mL, 5 to 40 µM, 24 hours, effect proportional to amount (FIG. 3B)
Protocol: (§1) A549 cells were dispensed into 6-well plates (1 × 10^6 cells/well) and cultured under conditions of 37°C and 5% CO2. After the culturing, the A549 cells were treated with of 5 ug/mL of lipopolysaccharide (LPS) and with 5 µM to 40 µM of gancaonin N, and the cells were then cultured for 24 hours. Afterwards, total RNA was isolated from each treated cell using Hybrid-RTM (GeneAll, South Korea). The isolated total RNA (500 ng) was converted to cDNA sequentially through incubation at 55°C for 60 minutes using oligo (dT) and incubation at 85°C for 5 minutes, and the cDNA was stored at 4°C until being used. In addition, real-time quantitative PCR was performed using Universal SYBR Green Master Mix (Applied Biosystems, USA), and the cDNA was amplified under conditions described below. 95°C for 15 minutes, then 95°C for 30 seconds, 59°C for 30 seconds, and 72°C for 30 seconds were repeated 40 times. […]
(§2) To investigate the inhibitory effect of gancaonin on the expression levels of pro-inflammatory cytokines, the mRNA expression levels of tumor necrosis factor-α (hereinafter referred to as TNF-α), interleukin-1 beta (hereinafter referred to as IL-1β), and interleukin 6 (hereinafter referred to as IL-6) which are all known as pro-inflammatory cytokines were measured. […]

COX-2 = test: Western blotting of COX-2 protein in LPS-stimulated A549 cells; format: cell-based, human; conditions: LPS 5 µg/mL, 5 to 40 µM (FIG. 4D)
Protocol: (§3) RAW264.7 cells and A549 cells were dispensed into 6-well plates (1 × 10^6 cells/well) and cultured under conditions of 37°C and 5% CO2. After the culturing, the Raw 264.7 cells were treated with 1 µg/mL of lipopolysaccharide (LPS) and the A549 cells were treated with 5 µg/mL of lipopolysaccharide (LPS) and with 5 µM to 40 µM of gancaonin N, and the cells were cultured for 24 hours or 6 hours. Then, the cells were lysed using a lysis buffer. In addition, the left lung extracted from each mouse was lysed using RIPA buffer. SDS-PAGE electrophoresis was performed on the cell and tissue lysates to separate proteins by side, and 5% bovine serum albumin was used for culturing and for blocking antibodies against PGE2 (1:500), IL-1β (1:500), IL-6 (1:500), TNF-α (1:500), i-NOS (1:500), COX-2 (1:1000), P-ERK1/2 (1:1000), ERK1/2 (1:3000), P-p38 (1:1000), p38 (1:3000), NF-κB p65 (1:1000), Lamin B1 (1:1000), and β-actin (1: 5,000).
(§4) For the pro-inflammatory cytokines whose mRNA expression inhibition was confirmed as above, the expression level of the protein encoded by the mRNA was further checked. To determine the protein expression level, A549 cells were treated with LPS and gancaonin N as described in Examples 1 to 8, and the protein expression levels were checked.

IL-1β [2] = test: Western blotting of IL-1β protein in LPS-stimulated A549 cells; format: cell-based, human; conditions: LPS 5 µg/mL, 5 to 40 µM (FIG. 4B)
Protocol: as §3, §4

p65 = test: MAPK/NF-κB signaling pathway: p65 in LPS-stimulated A549 cells; format: cell-based, human
Protocol: as §3
A549 cells were dispensed into 6-well plates (1 × 10^4 cells/well) and cultured under conditions of 37°C and 5% CO2. After the culturing, the A549 cells were treated with of 5 ug/mL of lipopolysaccharide (LPS) and with 5 µM to 40 µM of gancaonin N, and the cells were then cultured for 6 hours. […] For fluorescence observation, EVOSR Cell Imaging systems (Thermo Fisher Scientific, Waltham, MA, USA) were used. […]

IL-6 = test: Real-time PCR of IL-6 mRNA in LPS-stimulated A549 cells; format: cell-based, human; conditions: LPS 5 ug/mL, 5 to 40 µM, 24 hours, effect proportional to amount (FIG. 3C)
Protocol: as §1, §2

[3] = system: LPS-induced acute lung injury (ALI) mouse model; test: Lung wet/dry ratio measurement (pulmonary edema), LPS-induced acute lung injury mouse model; format: in vivo, BALB/c mice; conditions: mice, 10 mg/kg or 30 mg/kg intraperitoneally, LPS-induced ALI (FIG. 7)
Protocol: 25 6-week-old female BALB/c mice having a weight of 18g to 20 g were purchased from BioLink (DBL CO., Eumseong, Chungcheongbuk-do, Korea), and reared in the animal laboratory of KyungHee University. To establish an LPS-induced acute lung injury model, all the mice were divided into five groups each group of which consisted of 5 mice, and the five groups were referred to as control, vehicle (only LPS treatment), gancaonin N (10 mg/kg), gancaonin N (30 mg/kg), and dexamethasone (3 mg/kg). Gancaonin N was intraperitoneally injected at a dose of 10 mg/kg or 30 mg/kg, and dexamethasone was intraperitoneally injected at a dose of 3 mg/kg as a positive control group. In addition, the control and vehicle groups were intraperitoneally injected with 4% DMSO in which gancaonin N was dissolved. […]
To determine the severity of pulmonary edema, the wet weight of the right upper lung was measured, the tissue was dried 60°C for 72 hours, and the dry weight was measured. Afterwards, the W/D ratio was calculated.
The mouse models prepared as described in Examples 1 to 3 were treated with LPS to induce acute lung injury (ALI), and then the anti-inflammatory effect of gancaonin N was specifically evaluated for the mice of five groups (control, vehicle (only LPS), gancaonin N (10 mg/kg), gancaonin N (30 mg/kg), and dexamethasone (3 mg/kg)), […]

COc1ccc(-c2coc3cc(O)c(CC=C(C)C)c(O)c3c2=O)c(O)c1 [gancaonin N, 5,7-dihydroxy-3-(2-hydroxy-4-methoxyphenyl)-6-(3-methylbut-2-enyl)chromen-4-one]
mRNA expression of IL-1β (IL-1β [1]): significantly inhibited
protein expression of COX-2 (COX-2): significantly inhibited
protein expression of IL-1β (IL-1β [2]): significantly inhibited
activity/protein expression levels of p65 (p65; 5µM to 40 µM 2 hours before LPS treatment (FIG. 5C)): significantly reduced
amount of gancaonin N at which the inhibitory effect on the activity/protein expression levels of p65 was most excellent (p65; LPS, tested 5µM to 40 µM): 40 µM
mRNA expression of IL-6 (IL-6): significantly inhibited
W/D ratio [3]: significantly lowered
